Publication PMC6152231, “Anti-Inflammatory Triterpene Glycosides from the Roots of Ilex dunniana Levl” (Molecules : A Journal of Synthetic Chemistry and Natural …, 2017)

Legend:
BV2 microglial cells = experiment: cytotoxicity, MTT assay; assay type: cell-based, mouse; conditions: for Cell Viability: 24 h, BV2 microglial cells, n = 3, in % (unit assumed)
Description: Cell viabilities were measured using the MTT assay. Briefly, BV2 microglial cells were seeded in 96-well plates at concentrations of 1 × 10^5 cells per well. After incubation for 2 h, the cells were incubated with compounds for 24 h and then washed with PBS three times. Following the washing step, 200 μL of RPMI 1640 medium containing 0.5 mg/mL MTT were added to each well, the cells were then incubated at 37 °C for another 4 h. Finally, the culture medium was removed, and the formazan crystal was dissolved by adding 150 μL of DMSO. Absorbances at 570 nm were measured using a microplate reader.

[1] = tested on: LPS-induced NO production in mouse BV2 microglial cells; experiment: inhibition of LPS-induced NO production (Griess); assay type: cell-based; conditions: BV-2, LPS 1 μg/mL, 24 h, n = 3, read-out: IC50 against LPS-induced NO production
Description: BV2 microglial cells were maintained in RPMI1640 medium at 37 °C in 5% CO2. The cells were placed in 48-well plates and preincubated for 24 h, treated with tested triterpene glycosides dissolved in DMSO at various final concentrations (5.0, 10.0, 20.0, 40.0, 80.0 μM) in triplicate for 1 h, and continuously incubated with LPS (1 μg/mL) for 24 h. Dexamethasone (10^−6 M) was used as the positive control. From each well, the supernatants (100 μL) were mixed with an equal amount of Griess reagent at room temperature for 20 min. The concentration of NO2^− was measured for the amount of NO by a microplate reader at 570 nm, using sodium nitrite as the standard to calculate the concentration of the nitrite.

[2] = tested on: ear edema induced by croton oil in mice; experiment: croton oil-induced ear edema in mice; assay type: in vivo; conditions: ICR male mice, dose 1.0 mg/kg, positive control
Description: On the basis of the inhibition of croton oil-induced ear edema in mice, the topical anti-inflammatory activity of the test compounds was evaluated. Animal experiments were performed in accordance to the Institutional Guidelines for Animal Care and Use of the Chinese Academy of Medical Sciences and Peking Union Medical College. The protocol was approved by the Committee on the Ethics of Animal Experiments of the Chinese Academy of Medical Sciences and Peking Union Medical College (permit pumber: 002973).The croton oil (Croton tiglium L., seed oil) was purchased from Sigma-Aldrich (St. Louis, MO, USA). In ICR male mice (18–20 g, n = 10 per group), croton oil (0.4 mg) was mixed with acetone (1 mL) to be applied to the left ear (10 μL each side) topically to induce ear edema. The animals were administered with candidate extracts (50 mg/kg) for 1 h, followed by treatment with croton oil for 4 h. […] Based on the weight difference between two plugs (8 mm diameter) of the treated (left) and untreated (right) ears, the edematous response was measured. The percentage reduction in edema in treated mice compared with control mice is calculated for the expression of anti-inflammatory activity.

SMILES	Cell Viability (BV2 microglial cells; 5.0 μM)	Cell Viability (BV2 microglial cells; 10.0 μM)	Cell Viability (BV2 microglial cells; 20.0 μM)	Cell Viability (BV2 microglial cells; 40.0 μM)	Cell Viability (BV2 microglial cells; 80.0 μM)	IC50 [1]	cytotoxic activity against microglial cell, in words (BV2 microglial cells; BV2 microglial cells in vitro)	Edema Degree [2]	Inhibitation Rate ([2]; ear edema vs control group)
C[C@H]1CC[C@]2(C(=O)O[C@@H]3O[C@H](CO)[C@@H](O)[C@H](O)[C@H]3O)CC[C@]3(C)C(=CCC4[C@@]5(C)CC[C@H](O[C@@H]6OC[C@@H](O)[C@H](O)[C@H]6OS(=O)(=O)O)C(C)(C)C5CC[C@]43C)C2[C@]1(C)O (stereo partly drawn) [Compound 5, ilexpublesnin I]	98.21 ± 1.93	99.33 ± 1.54	99.32 ± 1.32	99.21 ± 1.66	99.13 ± 1.28	50.7 ± 3.25 µM			
C[C@H]1CC[C@]2(C(=O)O[C@@H]3O[C@H](CO)[C@@H](O)[C@H](O)[C@H]3O)CC[C@]3(C)C(=CCC4[C@@]5(C)CC[C@H](O[C@@H]6OC[C@H](O)[C@H](OS(=O)(=O)O)[C@H]6O)C(C)(C)C5CC[C@]43C)C2[C@]1(C)O (stereo partly drawn) [Compound 4, ilexpublesnin H]	99.36 ± 1.31	99.37 ± 1.21	99.67 ± 1.32	99.57 ± 1.53	99.33 ± 1.30	33.5 ± 2.11 µM			
C[C@@H]1CC[C@]2(C(=O)O[C@@H]3O[C@H](CO)[C@@H](O)[C@H](O)[C@H]3O)CC[C@]3(C)C(=CCC4[C@@]5(C)CC[C@H](O[C@@H]6O[C@H](CO)[C@@H](O)[C@H](O)[C@H]6O[C@@H]6O[C@H](CO)[C@@H](O[C@@H]7O[C@H](CO)[C@@H](O)[C@H](O)[C@H]7O)[C@H](O)[C@H]6O)C(C)(C)C5CC[C@]43C)[C@@H]2[C@]1(C)O (stereo partly drawn) [Compound 3, hylonoside II]	91.74 ± 1.11	90.28 ± 1.82	89.35 ± 1.35	88.62 ± 1.21	88.50 ± 1.32	9.7 ± 0.86 µM	showed cytotoxic activity		
C=C1CC[C@]2(C(=O)O[C@@H]3O[C@H](CO)[C@@H](O)[C@H](O)[C@H]3O[C@@H]3O[C@@H](C)[C@H](O)[C@@H](O)[C@H]3O)CC[C@]3(C)C(=CC[C@@H]4[C@@]5(C)CC[C@H](O[C@@H]6OC[C@H](O)[C@H](O[C@@H]7O[C@H](CO)[C@@H](O)[C@H](O)[C@H]7O[C@@H]7O[C@H](CO)[C@@H](O)[C@H](O)[C@H]7O)[C@H]6O[C@@H]6O[C@@H](C)[C@H](O)[C@@H](O)[C@H]6O)C(C)(C)[C@@H]5CC[C@]43C)[C@@H]2[C@]1(C)O [Compound 7, ilekudinoside F]	101.55 ± 1.42	101.68 ± 1.36	101.76 ± 1.47	101.38 ± 1.58	101.68 ± 1.38	55.2 ± 3.26 µM			
CCCCOC(=O)C1OC(OC2CCC3(C)C(CCC4(C)C3CC=C3C5C(C(=O)OC6OC(CO)C(O)C(O)C6O)(CCC(C)C5(C)O)CCC34C)C2(C)C)C(O)C(O)C1O [Compound 1, 3β-(6-O-n-butyl-D-glucuronopyranosyl)-19α-hydroxy-urs-12-en-28-oic acid 28-O-β-D-glucopyranoside]	99.74 ± 1.21	99.28 ± 1.32	99.35 ± 1.26	99.62 ± 1.89	99.70 ± 1.36	11.6 ± 0.89 µM			
CCCCOC(=O)C1OC(OC2CCC3(C)C(CCC4(C)C3CC=C3C5C(C(=O)OC6OC(CO)C(O)C(O)C6O)(CCC(C)C5(C)O)CCC34C)C2(C)C)C(O)C(OS(=O)(=O)O)C1O [Compound 2, 3β-(3-O-sulphonyl-6-O-n-butyl-D-glucuronopyranosyl)-19α-hydroxy-urs-12-en-28-oic acid 28-O-β-D-glucopyranoside]	98.32 ± 2.05	98.25 ± 1.87	98.16 ± 1.25	98.56 ± 1.37	98.26 ± 1.88	12.3 ± 1.21 µM			
C[C@@H]1CC[C@]2(C(=O)O[C@@H]3O[C@H](CO)[C@@H](O)[C@H](O)[C@H]3O)CC[C@]3(C)C(=CCC4[C@@]5(C)CC[C@H](OS(=O)(=O)[O-])[C@](C)(CO)C5CC[C@]43C)[C@@H]2[C@]1(C)O.[Na+] (stereo partly drawn) [Compound 6, ilexoside XXXV]	102.21 ± 1.03	102.28 ± 1.56	103.35 ± 1.58	103.26 ± 1.28	103.22 ± 1.89	22.3 ± 2.23 µM			
C[C@@H]1C[C@H]2[C@@H]3CCC4=CC(=O)C=C[C@]4(C)[C@@]3(F)[C@@H](O)C[C@]2(C)[C@@]1(O)C(=O)CO [Dexamethasone, reference compound]	101.02 ± 1.01	99.98 ± 1.32	100.25 ± 1.67	101.37 ± 1.83	99.78 ± 1.63	0.03 µM		5.80 ± 0.90 mg	71.0%
